Assay results reported in US20250145625A1, “PYRAZOLOPYRIMIDINE DERIVATIVE AND ANTICANCER PHARMACEUTICAL COMPOSITION CONTAINING SAME AS ACTIVE INGREDIENT” (KOREA RESEARCH INSTITUTE OF CHEMICAL TECHNOLOGY, priority 2021, published 2025).
pIC50: −log10 of the molar value.

Experiments:
[1] = system: HCT116 colon cancer cell line; assay: Cytotoxicity in TTK-expressed HCT116 cells; format: cell-based; details: Homo sapiens, HCT-116, 120 h, 5 days
Description: To determine the cytotoxicity of a compound represented by Chemical Formula 1 according to the present invention to HCT116 cells, the following test was conducted.
HCT116 colon cancer cell line purchased from ATCC was inoculated into each well of a 96-well plate at a volume of 90 μL containing 2,000 cells. Thereafter, an example compound of the present invention was added to respective wells at concentrations of […], 3 μM, 1 μM, 0.3 μM, 0.1 μM, and 0 μM, and the cells were cultured in a cell incubator at 37° C. for 5 days. After 5 days, the number of cells was measured by CCK8 test method, and the cytotoxicity was determined by calculating the IC50 value for cytotoxicity of each compound.

[2] = system: MDA-MB-231 triple negative breast cancer cell line; assay: Cytotoxicity in TTK-expressed MDA-MB-231 cells; format: cell-based; details: Homo sapiens, MDA-MB-231, 120 h, 5 days
Description: To determine the cytotoxicity of a compound represented by Chemical Formula 1 according to the present invention to MDA-MB-231 cells, the following test was conducted.
MDA-MB-231 triple negative breast cancer cell line purchased from ATCC was inoculated into each well of a 96-well plate at a volume of 90 μL containing 2,000 cells. Thereafter, an example compound of the present invention was added to respective wells at concentrations of 10 μM, 3 μM, 1 μM, 0.3 μM, 0.1 μM, and 0 μM, and the cells were cultured in a cell incubator at 37° C. for 5 days. Five days later, 10 μL of Cyto X solution (manufacturer: LPS Solution) was added to each of the wells, and the absorbance was measured at 450 nm using an Epoch microplate spectrophotometer (manufacturer: BioTek Instruments Inc.) according to the product's user guide. For cytotoxicity, the IC50 value for cytotoxicity of each compound was calculated by quantifying the number of cells using the measured value.

[3] = target: recombinant human TTK protein (Homo sapiens (Human), UniProt P33981); assay: Evaluation of TTK activity inhibitory ability (scintillation counting); format: biochemical; details: TTK inhibitory activity; read-out: IC50;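 note: reaction stopped with 0.5% phosphoric acid, spotted on P30 filter, TTK activity counted by scintillation, uninhibited no-compound wells taken as 100% control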
Chain of recombinant human TTK protein (P33981 whole entry): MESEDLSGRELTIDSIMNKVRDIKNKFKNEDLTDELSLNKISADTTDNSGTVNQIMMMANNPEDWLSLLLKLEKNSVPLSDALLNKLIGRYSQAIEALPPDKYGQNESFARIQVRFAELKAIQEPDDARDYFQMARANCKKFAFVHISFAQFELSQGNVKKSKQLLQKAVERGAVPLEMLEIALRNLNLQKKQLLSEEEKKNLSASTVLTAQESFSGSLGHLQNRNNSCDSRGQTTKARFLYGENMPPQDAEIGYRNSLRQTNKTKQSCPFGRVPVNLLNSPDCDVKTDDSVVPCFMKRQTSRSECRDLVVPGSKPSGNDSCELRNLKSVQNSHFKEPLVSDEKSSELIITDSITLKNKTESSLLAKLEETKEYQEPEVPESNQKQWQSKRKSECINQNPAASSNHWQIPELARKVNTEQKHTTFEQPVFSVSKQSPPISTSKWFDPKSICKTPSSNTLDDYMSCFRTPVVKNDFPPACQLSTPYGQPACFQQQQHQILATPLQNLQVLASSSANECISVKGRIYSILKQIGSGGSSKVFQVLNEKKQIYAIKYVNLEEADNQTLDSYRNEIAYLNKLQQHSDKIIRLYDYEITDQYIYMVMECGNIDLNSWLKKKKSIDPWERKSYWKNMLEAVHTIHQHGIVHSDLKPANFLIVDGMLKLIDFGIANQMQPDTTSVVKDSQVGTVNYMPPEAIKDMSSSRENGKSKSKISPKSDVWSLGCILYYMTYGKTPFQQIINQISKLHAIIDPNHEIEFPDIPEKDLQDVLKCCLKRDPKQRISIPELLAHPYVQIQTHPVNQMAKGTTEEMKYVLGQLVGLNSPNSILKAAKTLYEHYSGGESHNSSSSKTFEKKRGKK
Description: To determine the ability of a compound represented by Chemical Formula 1 according to the present invention to inhibit TTK activity, the following experiment was conducted.
After that, the reaction was terminated by adding phosphoric acid to a concentration of 0.5%, and 10 of the reaction solution was dropped onto a P30 filter. […] The activity of TTK was measured through scintillation counting. The activity value from the group with no compound was set as 100% of control, and the degree of TTK inhibition by the compound was calculated.

pIC50 [3] | Structure (SMILES) | IC50 [1] [nM] | IC50 [2] [nM]
7.00 to 7.52 | COc1cc(C(=O)N2CCN(C)CC2)ccc1Nc1nc(NC2CCCCC2)c2c(-c3cnn(C)c3)n[nH]c2n1 [Compound 11-5, (4-((4-(cyclohexylamino)-3-(1-methyl-1H-pyrazol-4-yl)-1H-pyrazolo[3,4-d]pyrimidin-6-yl)amino)-3-methoxyphenyl)(4-methylpiperazin-1-yl)methanone] | 150 to 500 | 500 to 1000
> 7.52 | COc1cc(N2CCOCC2)ccc1Nc1nc(NC2CCCCC2)c2c(-c3cnco3)n[nH]c2n1 [Compound 18-1, N^4-cyclohexyl-N^6-(2-methoxy-4-morpholinophenyl)-3-(oxazol-5-yl)-1H-pyrazolo[3,4-d]pyrimidine-4,6-diamine] | < 150 | < 150
> 7.52 | COc1cc(-c2nncn2C)ccc1Nc1nc(NC2CCCCC2)c2c(-c3cnn(C)c3)n[nH]c2n1 [Compound 11-2, N^4-cyclohexyl-N^6-(2-methoxy-4-(4-methyl-4H-1,2,4-triazol-3-yl)phenyl)-3-(1-methyl-1H-pyrazol-4-yl)-1H-pyrazolo[3,4-d]pyrimidine-4,6-diamine] | < 150 | < 150
> 7.52 | CNC(=O)c1ccc(Nc2nc(NC3CCOCC3)c3c(-c4cnco4)n[nH]c3n2)c(OC)c1 [Compound 33-2, 3-methoxy-N-methyl-4-((3-(oxazol-5-yl)-4-((tetrahydro-2H-pyran-4-yl)amino)-1H-pyrazolo[3,4-d]pyrimidin-6-yl)amino)benzamide] | 500 to 1000 | 150 to 500
7.00 to 7.52 | COc1cc(N2CCOCC2)ccc1Nc1nc(NC2CCCCC2)c2c(-c3nncn3C)n[nH]c2n1 [Compound 14-1, N^4-cyclohexyl-N^6-(2-methoxy-4-morpholinophenyl)-3-(4-methyl-4H-1,2,4-triazol-3-yl)-1H-pyrazolo[3,4-d]pyrimidine-4,6-diamine] | 150 to 500 | < 150

Further lines, the compound ahead of its results:

Structure (SMILES) | pIC50 [3] | IC50 [1] [nM] | IC50 [2] [nM]
COc1cc(N2CCOCC2)ccc1Nc1nc(NC2CCCCC2)c2c(-c3cn(C)cn3)n[nH]c2n1 [Compound 8-19, N^4-cyclohexyl-N^6-(2-methoxy-4-morpholinophenyl)-3-(1-methyl-1H-imidazol-4-yl)-1H-pyrazolo[3,4-d]pyrimidine-4,6-diamine] | 7.00 to 7.52 | 500 to 1000 | 150 to 500
COc1cc(N2CCOCC2)ccc1Nc1nc(NC2CCOCC2)c2c(-c3ncco3)n[nH]c2n1 [Compound 8-22, N^6-(2-methoxy-4-morpholinophenyl)-3-(oxazol-2-yl)-N^4-(tetrahydro-2H-pyran-4-yl)-1H-pyrazolo[3,4-d]pyrimidine-4,6-diamine] | > 7.52 | < 150 | 500 to 1000
COc1cc(N2CCOCC2)ccc1Nc1nc(NC2CCOCC2)c2c(-c3ccn(C)n3)n[nH]c2n1 [Compound 8-25, N^6-(2-methoxy-4-morpholinophenyl)-3-(1-methyl-1H-pyrazol-3-yl)-N^4-(tetrahydro-2H-pyran-4-yl)-1H-pyrazolo[3,4-d]pyrimidine-4,6-diamine] | > 7.52 | 150 to 500 | 150 to 500
COc1cc(N2CCOCC2)ccc1Nc1nc(NC2CCOCC2)c2c(-c3ccncc3)n[nH]c2n1 [Compound 8-28, N^6-(2-methoxy-4-morpholinophenyl)-3-(pyridin-4-yl)-N^4-(tetrahydro-2H-pyran-4-yl)-1H-pyrazolo[3,4-d]pyrimidine-4,6-diamine] | > 7.52 | 150 to 500 | 150 to 500
COc1cc(N2CCOCC2)ccc1Nc1nc(NC2CCCCC2)c2c(-c3cnn(C(F)F)c3)n[nH]c2n1 [Compound 8-12, N^4-cyclohexyl-3-(1-(difluoromethyl)-1H-pyrazol-4-yl)-N^6-(2-methoxy-4-morpholinophenyl)-1H-pyrazolo[3,4-d]pyrimidine-4,6-diamine] | 7.00 to 7.52 | 150 to 500 | 150 to 500
COc1cc(N2CCOCC2)ccc1Nc1nc(NC2CCCCC2)c2c(-c3ccc4[nH]cnc4c3)n[nH]c2n1 [Compound 8-16, 3-(1H-benzo[d]imidazol-5-yl)-N^4-cyclohexyl-N^6-(2-methoxy-4-morpholinophenyl)-1H-pyrazolo[3,4-d]pyrimidine-4,6-diamine] | 7.00 to 7.52 | < 150 | 500 to 1000
COc1cc(N2CCOCC2)ccc1Nc1nc(NCC2CCCO2)c2c(-c3cnn(C)c3)n[nH]c2n1 (stereo not drawn) [Compound 8-34, N^6-(2-methoxy-4-morpholinophenyl)-3-(1-methyl-1H-pyrazol-4-yl)-N^4-((tetrahydrofuran-2-yl)methyl)-1H-pyrazolo[3,4-d]pyrimidine-4,6-diamine] | > 7.52 | > 1000 | > 1000
COc1cc(N2CCOCC2)ccc1Nc1nc(NC2CCCCC2)c2c(-c3ccc4nc(C)oc4c3)n[nH]c2n1 [Compound 8-18, N^4-cyclohexyl-N^6-(2-methoxy-4-morpholinophenyl)-3-(2-methylbenzooxazol-6-yl)-1H-pyrazolo[3,4-d]pyrimidine-4,6-diamine] | 7.00 to 7.52 | < 150 | 150 to 500
COc1cc(N2CCOCC2)ccc1Nc1nc(NC2CCCCC2)c2c(-c3ccn(C)n3)n[nH]c2n1 [Compound 8-13, N^4-cyclohexyl-N^6-(2-methoxy-4-morpholinophenyl)-3-(1-methyl-1H-pyrazol-3-yl)-1H-pyrazolo[3,4-d]pyrimidine-4,6-diamine] | > 7.52 | 500 to 1000 | 500 to 1000
COc1cc(N2CCOCC2)ccc1Nc1nc(NC2CCCCC2)c2c(-c3cncs3)n[nH]c2n1 [Compound 8-15, N^4-cyclohexyl-N^6-(2-methoxy-4-morpholinophenyl)-3-(thiazol-5-yl)-1H-pyrazolo[3,4-d]pyrimidine-4,6-diamine] | > 7.52 | 150 to 500 | 150 to 500
COc1cc(N2CCOCC2)ccc1Nc1nc(NC2CCOCC2)c2c(-c3cnn(C(F)F)c3)n[nH]c2n1 [Compound 8-24, 3-(1-(difluoromethyl)-1H-pyrazol-4-yl)-N^6-(2-methoxy-4-morpholinophenyl)-N^4-(tetrahydro-2H-pyran-4-yl)-1H-pyrazolo[3,4-d]pyrimidine-4,6-diamine] | > 7.52 | 150 to 500 | 150 to 500
COc1cc(N2CCOCC2)ccc1Nc1nc(NC2CCOCC2)c2c(-c3cnoc3)n[nH]c2n1 [Compound 8-21, 3-(Isoxazol-4-yl)-N^6-(2-methoxy-4-morpholinophenyl)-N^4-(tetrahydro-2H-pyran-4-yl)-1H-pyrazolo[3,4-d]pyrimidine-4,6-diamine] | 7.00 to 7.52 | 500 to 1000 | 500 to 1000
